“And” between values parts separate entries of the source, which are not always exact repeats. Equal entries are not always repeated.
Tests used:
[1] = system: MCF-7 (ER-positive breast adenocarcinoma) cells; design: method as in PMID 36903304; conditions: previous study ref 48; cited from earlier work
[2] = system: MCF-7 (ER-positive breast adenocarcinoma) cells; assay: MTT assay, antiproliferative activity on MCF-7 cells; assay type: cell-based, human; conditions: for IC50: MTT, 72 h; for SI MCF-7 (selectivity index): SI = IC50 on Neuro-2a/IC50 on MCF-7
Procedure: (§1) The antiproliferative activity of the novel indolyl-methylidene-substituted phenylsulfonylhydrazones (3a–j) and the bis-indole hydrazine derivative (4) was evaluated against two breast cancer cell lines: MCF-7 and MDA-MB-231. The MCF-7 cell line, derived from human breast adenocarcinoma, expresses estrogen receptor alpha (ER-α). In contrast, the MDA-MB-231 cell line represents triple-negative breast cancer (TNBC) and lacks expression of estrogen, progesterone, and HER2 receptors. Antiproliferative activity was expressed as IC50, the concentration (in μM) required to inhibit 50% of cell growth, and ligand efficiency (LE), calculated as LE = −log(IC50)/number of heavy atoms. To assess the selectivity index (SI = IC50 on Neuro-2a/IC50 on breast cancer cell line), the compounds were also tested on Neuro-2a cells, a mouse neuroblastoma cell line derived from brain tissue.
(§2) The in vitro antineoplastic activity of the synthesized compounds was tested against human breast cancer cell lines, comprising the triple-negative MDA-MB-231 and the […] MCF-7. Neuroblastoma mouse cells Neuro-2a were used as a non-breast cancer cell line reference. All cell lines were obtained from the German Collection of Microorganisms and Cell Cultures (DSMZ, Braunschweig, Germany) and cultivated and maintained in accordance with the supplier’s protocols. The cells were cultured in RPMI 1640 growth medium (Gibco, Thermo Fisher Scientific, Waltham, MA, USA), supplemented with 10% fetal bovine serum (FBS; Gibco, Thermo Fisher Scientific, Waltham, MA, USA) and 5% L-glutamine (Gibco, Thermo Fisher Scientific, Waltham, MA, USA), and incubated at standard conditions of 37 °C in a humidified environment with 5% CO2.
(§3) The cytostatic activity of the tested compounds was evaluated using the Mosmann MTT assay—a well-established colorimetric method for assessing cell viability. This assay measures mitochondrial enzyme activity by reducing the yellow dye MTT (3-(4,5-dimethylthiazol-2-yl)-2,5-diphenyltetrazolium bromide) into violet formazan crystals. The exponentially growing cells were harvested and seeded into 96-well plates at a density of 1.5 × 10^5 cells per well in 100 μL of medium and incubated for 24 h. The cell cultures were then treated with various concentrations (200–6.25 μM) of the tested compounds and incubated for 72 h. Cell viability was quantified as a percentage (%) relative to the untreated control, which was set at 100% viability.
(§4) The experimental data were analyzed using nonlinear regression in GraphPad Prism® software, version 9.0. Semi-logarithmic dose–response curves were generated, and the half-maximal inhibitory concentrations (IC50) of the tested compounds were calculated for each tumor cell line.

[3] = system: MDA-MB-231 (triple-negative breast cancer) cells; assay: MTT assay, antiproliferative activity on MDA-MB-231 cells; assay type: cell-based, human; conditions: for IC50: MTT, 72 h; for SI MDA-MB-231 (selectivity index): SI = IC50 on Neuro-2a/IC50 on MDA-MB-231
Procedure: as §1, §2, §3, §4

[4] = system: Neuro-2a (mouse neuroblastoma) cells; assay: MTT assay on Neuro-2a reference cells; assay type: cell-based; conditions: N2a, 72 h
Procedure: as §1, §2, §3, §4

Row | Compound | selectivity index MCF-7, earlier series of arylsulfonylhydrazones [1] | IC50 ([2]; Homo sapiens, MCF7, 72 h) [µM] | SI MCF-7 (selectivity index) [2] | IC50 ([3]; Homo sapiens, MDA-MB-231, 72 h) [µM] | SI MDA-MB-231 (selectivity index) [3] | IC50 [4] [µM] | IC50 [2] [µM] | IC50 [3] [µM]
1 | CC(=O)n1cc(C=NNS(=O)(=O)c2ccc(C)cc2)c2ccccc21 [1d, N′-[(1-acetyl-1H-indol-3-yl)methylidene]-4-methylbenzenesulfonohydrazide] | ≤ 46 |  |  |  |  |  |  | 
2 | COc1ccc(S(=O)(=O)N/N=C/c2cn(C(C)=O)c3ccccc23)cc1 [3a, N′-[(E)-(1-Acetyl-1H-indol-3-yl)methylidene]-4-methoxybenzene-1-sulfonohydrazide] |  | 4.3 ± 1.3 | 13.5 and 13.488 | 20.1 ± 3.4 | 2.886 | 58 ± 8.2 |  | 
3 | CC(=O)n1cc(/C=N/NS(=O)(=O)c2c(C)cc(C)cc2C)c2ccccc21 [3b, N′-[(E)-(1-Acetyl-1H-indol-3-yl)methylidene]-2,4,6-trimethylbenzene-1-sulfonohydrazide] |  | 4 ± 0.9 | 20.975 | 16.3 ± 4.1 | 5.147 | 83.9 ± 9.4 |  | 
4 | COc1ccc(S(=O)(=O)N/N=C/c2c[nH]c3ccc(Br)cc23)cc1 [3c, N′-[(E)-(5-Bromo-1H-indol-3-yl)methylidene]-4-methoxybenzene-1-sulfonohydrazide] |  | 5.2 ± 1 | 3.577 | 17.7 ± 2.3 | 1.051 | 18.6 ± 3.9 |  | 
5 | Cc1cc(C)c(S(=O)(=O)N/N=C/c2c[nH]c3ccc(Br)cc23)c(C)c1 [3d, N′-[(E)-(5-Bromo-1H-indol-3-yl)methylidene]-2,4,6-trimethylbenzene-1-sulfonohydrazide] |  | 4.2 ± 0.7 | 5.000 | 19.9 ± 1.6 | 1.055 | 21 ± 2.1 |  | 
6 | Cc1ccc(S(=O)(=O)N/N=C/c2c[nH]c3ccc(Br)cc23)cc1 [3e, N′-[(E)-(5-Bromo-1H-indol-3-yl)methylidene]-4-methylbenzene-1-sulfonohydrazide] |  | 29.6 ± 5.1 | 1.176 | 18.7 ± 2.7 | 1.861 | 34.8 ± 5.7 |  | 
7 | O=S(=O)(N/N=C/c1c[nH]c2ccc(Br)cc12)c1ccccc1 [3f, N′-[(E)-(5-Bromo-1H-indol-3-yl)methylidene]benzene-1-sulfonohydrazide] |  | < 6 | 1.847 |  | 2.319 | 10.9 ± 1.8 | 5.9 ± 1.4 | 
8 | COc1ccc(S(=O)(=O)N/N=C/c2c[nH]c3ccc(Cl)cc23)cc1 [3g, N′-[(E)-(5-Chloro-1H-indol-3-yl)methylidene]-4-methoxybenzene-1-sulfonohydrazide] |  | 12.7 ± 2.8 | 2.063 | 14.7 ± 1.8 | 1.782 | 26.2 ± 3.5 |  | 
9 | Cc1cc(C)c(S(=O)(=O)N/N=C/c2c[nH]c3ccc(Cl)cc23)c(C)c1 [3h, N′-[(E)-(5-Chloro-1H-indol-3-yl)methylidene]-2,4,6-trimethylbenzene-1-sulfonohydrazide] |  | 15.2 ± 2.1 | 1.579 | 18.1 ± 2.5 | 1.326 | 24 ± 1.9 |  | 
10 | Cc1ccc(S(=O)(=O)N/N=C/c2c[nH]c3ccc(Cl)cc23)c(C)c1 [3i, N′-[(E)-(5-Chloro-1H-indol-3-yl)methylidene]-2,4-dimethylbenzene-1-sulfonohydrazide] |  | 12.4 ± 3.2 | 1.282 | < 10 | 1.674 | 15.9 ± 1.6 |  | 9.5 ± 1.5
11 | Cc1ccc(S(=O)(=O)N/N=C/c2c[nH]c3ccc(Cl)cc23)cc1C [3j, N′-[(E)-(5-Chloro-1H-indol-3-yl)methylidene]-3,4-dimethylbenzene-1-sulfonohydrazide] |  | 11.5 ± 2.3 | 3.087 | 13.3 ± 2.2 | 2.669 | 35.5 ± 5.3 |  | 
12 | N.N.[Cl][Pt][Cl] [Cisplatin, reference compound] |  |  |  |  |  |  | 50.3 ± 6.5 | 63.4 ± 7.2
13 | Clc1ccc2[nH]cc(/C=N/N=C/c3c[nH]c4ccc(Cl)cc34)c2c1 [compound 4, 3,3′-[(1E,2E)-hydrazine-1,2-diylidenedi(E)methylylidene]bis(5-chloro-1H-indole)] |  | 21.4 ± 4.9 | 2.509 | 66 ± 7.4 | 0.814 | 53.7 ± 3.1 |  | 
14 | N′-[(1-acetyl-1H-indol-3-yl)methylidene]benzenesulfonohydrazide [1c] | up to 40 |  |  |  |  |  |  | 
